# In patent US20060052455A1, “Composition for preventing treating the xepression of clinical symptom in disease caused by mitochondrial dysfunction” (priority 2002, published 2006):
# Test system: MELAS patients
# Assay: Intravenous drip infusion of L-arginine monohydrochloride to MELAS patients
# Type: in vivo, human
# Text: This treatment by intravenous injection is, however, not convenient for MELAS patients, because, in order to receive intravenous injection in the acute stage of cerebral apoplexy-like episode, they have to go to the hospital to receive such intravenous injection immediately after the episode has occurred. […] The scintillating scotoma refers to an abnormal visual field which is one of warning symptoms of a cerebral apoplexy-like episode, and when it occurs, a riffle-like light suddenly appears in a part of the visual field and usually lasts for 5 to 30 minutes. Moreover, administration of a large amount of L-arginine monohydrochloride into a blood vessel may presumably cause side effects such as drop in blood pressure, hydrochloric acidosis, or the like.
structure (smiles),measurement,setting,value
Cl.N=C(N)NCCC[C@H](N)C(=O)O [L-arginine monohydrochloride],treatment of the acute stage of cerebral apoplexy-like episode due to MELAS,"intravenous drip infusion, three patients",effective
same,"improvement of warning symptoms of the episode, particularly scintillating scotoma",intravenous injection,cannot improve
